Read-outs that look alike come from different tables or passages of the source. Each block holds one compound with its values, some of them ahead of it.
Legend:
[1] = system: pigmented guinea pigs; assay: General toxicity in guinea pigs (mortality, weight gain), daily ip injection; assay type: in vivo, guinea pig
Text: Daily weight measurements determined the injection volume.

[2] = system: pigmented guinea pigs
Experimental: Auditory thresholds were assessed in the 0.5 g/kg and 1 g/kg/day subjects at day 45 of dosing while the 2 g/kg/day subjects were evaluated at 22 days of dosing. […] Daily weight measurements determined the injection volume. Assessment of auditory function occurred at the conclusion of dosing.
Injections, determined by daily weight measurements, were made ip daily for 45 days.
Continuous tones were used for eliciting CM. Tone bursts were used to elicit the CAP.

[3] = system: MCF-7 human breast tumor; assay: MCF-7 human breast cancer xenograft model; assay type: in vivo, Nude mice; details: 0.5% w/v in drinking water; for animals with partial tumor shrinkage: Day 90, eight animals per group; for mean partial tumor shrinkage: Day 90, in the animals with shrinkage; for tumor growth inhibition: Day 90, in the animals without shrinkage
Experimental: FIG. 11 Mean Tumor weight of MCF-7 human breast tumors in nude […].
Nude mice were implanted with the estrogen-dependent human breast tumor line, MCF-7 (ATCC #HTB22). […] The experiment was terminated on Day 90 (when control tumors had reached a size of 400 mg.). Mice were weighed twice weekly, and tumor measurements were taken by calipers twice weekly, starting at time of DFMO administration (Day 1). Tumor measurements were converted to mg tumor weight by the formula, L^2×W/2.

[4] = rats, 200 mg/kg/day to 1.2 g/kg/day by intubation, up to eight weeks
Experimental: Twenty-four Long Evans pigmented rats (250-275 g) were acquired from Harlan Sprague Dawley (Indianapolis, Ind.) and thirty-six pigmented guinea pigs obtained from Kuiper Rabbit Ranch (Gary, Ind.) at an initial weight of 200-250 g and housed in University of Oklahoma Health Sciences Center animal facility. Subjects were housed under a 12:12 hr light dark cycle with free access to food and water with a room temperature controlled at 21° C.
Twenty-four animals were randomly placed into 8 groups of three subjects each. […] Four additional animals were randomly placed into 2 subsequent groups: 400 and 600 mg/kg/day by gavage twice a day (5 days/week) for 8 weeks. […] Weight measurements were taken daily (5 days/week) with assessment of auditory function performed at the conclusion of dosing.

[5] = system: tumor putrescine levels; details: rat-tumor model, infusion; cited from earlier work
[6] = Plasma levels in rats after single oral dose
[7] = system: hair cells of the basilar membrane; assay: Histology of Organ of Corti surface preparations (SDH staining, hair cell damage); details: one guinea pig, 1 g/kg/day for 45 days; most apical 40% normal
Experimental: Surface preparations of the Organ of Corti were evaluated in a limited number of subjects. The animals were decapitated while deeply anesthetized after CAP and CM recording. Cochleae were removed immediately. Both the round and oval windows were opened and the apex of the cochlea was drilled open to facilitate perfusion. The cochleae were perfused with SDH (succinate dehydrogenase) incubative solution (0.05 M sodium succinate, 0.05 M phosphate buffer and 0.05% TetraNitro Blue Tetrazolium) and immersed in the solution for one h (37° C.). Then the cochleae were fixed with 10% formalin for at least 2 days. After fixation, the cochleae were decalcified in 10% EDTA solution (EthyleneDiamine Tetraacetic Acid) for 3 days or longer as needed. Cochlea microdissection was accomplished under a light microscope.
Locations along the surface of the basilar membrane were identified by percent distance from apex, and can be related to the physiological data because sound is encoded in a tonotopic fashion with the highest frequencies represented in the most basal portion of the cochlea.

[8] = rat, in vivo, po, 200 mg/kg
[9] = system: MCF-7, LNCaP, PC-3, HT-29 cancer cell lines; assay: Induction of apoptosis in cell lines (DNA fragmentation ELISA, Hoechst staining); assay type: cell-based, human; details: DFMO forms at 1 and 10 uM
Experimental: Each of the three forms of DFMO were tested at two concentrations (1 and 10 uM). Adriamycin and calcium chloride were used as positive controls. Apoptosis was assayed using a multi-well plate DNA fragmentation assay according to the Cellular DNA Fragmentation ELISA kit (Boehringer Mannheim Biochemicals, Cat. #1585-045) and Hoechst staining.

Compound: NCCCC(N)(C(=O)O)C(F)F (racemic) [D,L-DFMO, 2-(Difluoromethyl)-DL-ornithine]
- systemic toxicity (growth rate) ([1]; 500 mg/kg/day ip, 45 days): no apparent signs of systemic toxicity
- weight gain ([1]; 1 g/kg/day ip, 45 days): appear to diverge from the controls during the last 10 days
- subjects that did not survive ([1]; 1 g/kg/day ip, full 6 week dosing regimen): two of the five
- weight gain ([1]; 2 g/kg/day ip, to day 22): effectively blocked
- animals dying ([1]; 3 g/kg/day ip, within the first six days): 100%
- average loss of auditory sensitivity (CAP), 20 to 40 kHz ([2]; 500 mg/kg/day ip, day 45): 7.1 dB
- CAP threshold elevation, average ([2]; 500 mg/kg/day ip, day 45, all frequencies): 9 dB
- effect on CM sensitivity ([2]; 500 mg/kg/day to 2 g/kg/day ip): not effected
- average loss of auditory sensitivity (CAP), 20 to 40 kHz ([2]; 1 g/kg/day ip, day 45): 17 dB
- CAP threshold average loss across all frequencies ([2]; 2 g/kg/day ip, 22 days): 14 dB
- average loss of auditory sensitivity (CAP), 20 to 40 kHz ([2]; 2 g/kg/day ip, 22 days): 30 dB
- animals with partial tumor shrinkage [3]: seven of eight
- mean partial tumor shrinkage [3]: 60.4%
- tumor growth inhibition [3]: 99.2%
- weight change [4]: does not produce any significant weight change
- decrease in tumor putrescine levels [5]: 90%
- maximum plasma level ([6]; 400 mg/kg orally): 109 µg/mL
- portion of basilar membrane showing hair cell damage [7]: 60%

Compound: NCCC[C@@](N)(C(=O)O)C(F)F [D-DFMO, D enantiomer of difluoromethylornithine]
- animals with partial tumor shrinkage [3]: four of eight
- mean partial tumor shrinkage [3]: 62.6%
- tumor growth inhibition [3]: 84.7%
- toxic death ([3]; eight animals per group): two animals experienced toxic death
- plasma level [8]: 102 µg/mL

Compound: COc1cccc2c1C(=O)c1c(O)c3c(c(O)c1C2=O)C[C@@](O)(C(=O)CO)C[C@@H]3O[C@H]1C[C@H](N)[C@H](O)[C@H](C)O1 [adriamycin]
- apoptosis and cytotoxicity [9]: cytotoxic as well as apoptotic

- plasma level ([6]; 200 mg/kg orally, one to two hours): 45 µg/mL
Compound: (−)-4-difluoromethyl-ornithine [L-DFMO]
- animals with partial tumor shrinkage [3]: seven of eight
- mean partial tumor shrinkage [3]: 50.0%
- tumor growth inhibition [3]: 5.5%

Reference: patent publication US6602910B2, “D-enantiomer of DFMO and methods of use therefor” (priority 2000, dated 2003)
